Calls of active or inactive are those of the source. The calls are words filed in the database; no cut-off is given here.
Tests used:
[1] = molecular target: T1, Epidermal growth factor receptor (Homo sapiens, UniProt P00533); assay: Inhibiton of wild type EGFR (unknown origin) using Poly (Glu4Tyr1) as substrate incubated for 1 hr by ELISA; assay type: single protein
[2] = molecular target: T2, Epidermal growth factor receptor (Homo sapiens, UniProt P00533, L858R/T790M); assay type: protein assay
[3] = molecular target: T1, Epidermal growth factor receptor
[4] = molecular target: T2, Epidermal growth factor receptor
[5] = species: Homo sapiens; assay: Selectivity index, ratio of IC50 for wild type EGFR (unknown origin) to IC50 for EGFR L858R/T790M mutant (unknown origin)
[6] = molecular target: T1, Epidermal growth factor receptor; assay: Inhibition of EGF-stimulated wild type EGFR phosphorylation in human A431 cells at 100 nM preincubated for 2 hrs followed by EGF stimulation measured after 15 mins by Western blot analysis; assay type: cell-based; details: a-431, 0.25 h, 0.1 µM
[7] = molecular target: T1, Epidermal growth factor receptor; assay: Inhibition of EGF-stimulated wild type EGFR phosphorylation in human A431 cells assessed as suppression of AKT phosphorylation at 100 nM preincubated for 2 hrs followed by EGF stimulation measured after 15 mins by Western blot analysis; assay type: cell-based; details: a-431, 0.25 h, 0.1 µM
[8] = tested on: Epidermal growth factor receptor (Homo sapiens), P00533 [T790M]; details: 100 nM
[9] = tested on: Epidermal growth factor receptor (Homo sapiens), P00533 [L858R,T790M]; details: 100 nM
[10] = tested on: A-431; assay: Cytotoxicity against human A431 cells overexpressing wild type EGFR after 72 hrs by SRB assay; assay type: cell-based; details: A-431, 72 h
[11] = tested on: NCI-H1975; assay: Selectivity index, ratio of IC50 for human MCF10A cells to IC50 for human NCI-H1975 cells harboring EGFR L858R/T790M mutant
[12] = tested on: NCI-H1975; assay: Selectivity index, ratio of IC50 for human GES1 cells to IC50 for human NCI-H1975 cells harboring EGFR L858R/T790M mutant
[13] = tested on: NCI-H1975; assay: Cytotoxicity against human NCI-H1975 harboring EGFR L858R/T790M mutant after 72 hrs by SRB assay; assay type: functional, cell-based; details: NCI-H1975, 72 h
[14] = tested on: NCI-H1975; assay: Effect on total AKT level in EGF-stimulated human NCI-H1975 cells expressing EGFR T790M mutant preincubated for 2 hrs followed by EGF stimulation measured after 15 mins by Western blot analysis; assay type: ADME, cell-based; details: nci-h1975, 0.25 h
[15] = molecular target: T1, Epidermal growth factor receptor; assay: Inhibition of EGF-stimulated wild type EGFR phosphorylation in human A431 cells assessed as suppression of ERK phosphorylation at 100 nM preincubated for 2 hrs followed by EGF stimulation measured after 15 mins by Western blot analysis; assay type: cell-based; details: a-431, 0.25 h, 0.1 µM
[16] = tested on: NCI-H1975; assay: Selectivity index, ratio of IC50 for human WI38 cells to IC50 for human NCI-H1975 cells harboring EGFR L858R/T790M mutant
[17] = tested on: Epidermal growth factor receptor (Homo sapiens), P00533 [L858R,T790M]; details: H1975, 1 uM
[18] = species: Homo sapiens; assay: Selectivity ratio of Kd for wild type human EGFR to Kd for human EGFR L858R/T790M mutant
[19] = tested on: NCI-H1975; assay: Effect on total EGFR T790M mutant level in EGF-stimulated human NCI-H1975 cells preincubated for 2 hrs followed by EGF stimulation measured after 15 mins by Western blot analysis; assay type: ADME, cell-based; details: nci-h1975, 0.25 h
[20] = tested on: NCI-H1975; assay: Effect on total ERK level in EGF-stimulated human NCI-H1975 cells expressing EGFR T790M mutant preincubated for 2 hrs followed by EGF stimulation measured after 15 mins by Western blot analysis; assay type: ADME, cell-based; details: nci-h1975, 0.25 h
[21] = tested on: NCI-H1975; assay: Selectivity index, ratio of IC50 for human LO2 cells to IC50 for human NCI-H1975 cells harboring EGFR L858R/T790M mutant
[22] = tested on: NCI-H1975; assay: Selectivity index, ratio of IC50 for human A431 cells overexpressing wild type EGFR to IC50 for human NCI-H1975 cells harboring EGFR L858R/T790M mutant
[23] = tested on: Epidermal growth factor receptor (Homo sapiens), P00533 [T790M]; details: H1975, 0.3 to 30 nM
[24] = tested on: Epidermal growth factor receptor (Homo sapiens), P00533 [T790M]; details: H1975, 0.3 to 30 nM; remark: listed apart in the source
[25] = tested on: Epidermal growth factor receptor (Homo sapiens), P00533 [T790M]; details: H1975, 0.3 to 30 nM; remark: listed apart in the source

Epidermal growth factor receptor (Homo sapiens), P00533 [T790M], sequence (P00533 whole entry T790M): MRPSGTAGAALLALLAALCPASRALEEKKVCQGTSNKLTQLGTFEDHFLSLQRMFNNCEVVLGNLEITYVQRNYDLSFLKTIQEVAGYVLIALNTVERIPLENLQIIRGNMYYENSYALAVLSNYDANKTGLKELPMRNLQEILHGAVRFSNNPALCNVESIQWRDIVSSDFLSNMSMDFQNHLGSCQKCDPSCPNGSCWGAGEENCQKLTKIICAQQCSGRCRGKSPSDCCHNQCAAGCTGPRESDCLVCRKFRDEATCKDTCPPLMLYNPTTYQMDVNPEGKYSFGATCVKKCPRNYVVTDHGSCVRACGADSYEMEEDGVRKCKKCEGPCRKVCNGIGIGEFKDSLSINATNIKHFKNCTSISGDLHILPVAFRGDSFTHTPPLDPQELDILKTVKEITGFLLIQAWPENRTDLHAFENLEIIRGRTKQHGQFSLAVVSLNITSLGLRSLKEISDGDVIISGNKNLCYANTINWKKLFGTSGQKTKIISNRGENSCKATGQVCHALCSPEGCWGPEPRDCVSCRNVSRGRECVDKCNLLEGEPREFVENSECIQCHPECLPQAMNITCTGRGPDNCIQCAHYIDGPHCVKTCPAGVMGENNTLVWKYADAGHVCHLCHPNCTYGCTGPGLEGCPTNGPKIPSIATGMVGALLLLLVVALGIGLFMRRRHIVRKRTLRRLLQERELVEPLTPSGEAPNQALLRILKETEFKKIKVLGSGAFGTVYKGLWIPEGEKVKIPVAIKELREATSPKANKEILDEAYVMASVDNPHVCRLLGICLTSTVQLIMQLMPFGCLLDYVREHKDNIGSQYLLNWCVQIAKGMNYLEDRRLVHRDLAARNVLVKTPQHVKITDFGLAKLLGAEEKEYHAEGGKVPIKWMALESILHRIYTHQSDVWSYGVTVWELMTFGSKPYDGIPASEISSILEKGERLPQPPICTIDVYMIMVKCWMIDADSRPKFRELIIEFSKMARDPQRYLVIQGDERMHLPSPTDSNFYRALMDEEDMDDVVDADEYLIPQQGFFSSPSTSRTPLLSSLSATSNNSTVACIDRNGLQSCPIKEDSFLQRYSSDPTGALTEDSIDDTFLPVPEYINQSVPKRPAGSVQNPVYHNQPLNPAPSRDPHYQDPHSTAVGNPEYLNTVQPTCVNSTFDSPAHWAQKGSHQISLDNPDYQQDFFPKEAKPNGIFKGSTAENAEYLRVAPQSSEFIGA
T1 sequence (P00533 whole entry): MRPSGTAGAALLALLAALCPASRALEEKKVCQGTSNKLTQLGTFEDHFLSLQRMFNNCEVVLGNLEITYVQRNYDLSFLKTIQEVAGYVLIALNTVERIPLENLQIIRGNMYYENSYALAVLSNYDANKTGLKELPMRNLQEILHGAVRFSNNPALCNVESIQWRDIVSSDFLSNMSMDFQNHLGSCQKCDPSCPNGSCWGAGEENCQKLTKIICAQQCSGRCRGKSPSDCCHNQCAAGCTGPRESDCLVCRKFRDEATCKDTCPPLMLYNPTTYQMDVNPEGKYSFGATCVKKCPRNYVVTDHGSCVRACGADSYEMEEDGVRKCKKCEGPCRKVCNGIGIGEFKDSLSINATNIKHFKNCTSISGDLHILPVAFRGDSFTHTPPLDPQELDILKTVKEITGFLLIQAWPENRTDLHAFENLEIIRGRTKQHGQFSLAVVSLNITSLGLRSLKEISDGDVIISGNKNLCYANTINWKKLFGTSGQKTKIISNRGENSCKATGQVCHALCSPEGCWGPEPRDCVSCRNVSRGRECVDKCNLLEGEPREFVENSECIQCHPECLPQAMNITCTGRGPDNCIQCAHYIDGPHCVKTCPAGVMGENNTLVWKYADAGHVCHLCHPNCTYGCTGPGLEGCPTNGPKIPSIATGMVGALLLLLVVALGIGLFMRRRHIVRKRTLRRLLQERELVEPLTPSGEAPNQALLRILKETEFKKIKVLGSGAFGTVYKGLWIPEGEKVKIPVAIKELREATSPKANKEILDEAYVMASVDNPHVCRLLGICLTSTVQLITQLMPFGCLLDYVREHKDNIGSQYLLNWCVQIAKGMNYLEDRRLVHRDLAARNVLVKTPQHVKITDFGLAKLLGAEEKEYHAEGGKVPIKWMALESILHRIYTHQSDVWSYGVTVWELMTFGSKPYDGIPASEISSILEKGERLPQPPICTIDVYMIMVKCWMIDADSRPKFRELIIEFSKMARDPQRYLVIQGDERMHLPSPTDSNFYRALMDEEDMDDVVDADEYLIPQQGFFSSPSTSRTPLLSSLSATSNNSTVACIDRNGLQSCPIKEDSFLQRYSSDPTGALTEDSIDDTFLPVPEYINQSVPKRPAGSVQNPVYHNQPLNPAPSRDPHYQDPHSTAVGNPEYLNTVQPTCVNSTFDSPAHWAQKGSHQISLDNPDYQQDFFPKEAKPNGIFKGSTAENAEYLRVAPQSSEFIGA
T2 sequence (P00533 25-1210 T790M/L858R limits assumed): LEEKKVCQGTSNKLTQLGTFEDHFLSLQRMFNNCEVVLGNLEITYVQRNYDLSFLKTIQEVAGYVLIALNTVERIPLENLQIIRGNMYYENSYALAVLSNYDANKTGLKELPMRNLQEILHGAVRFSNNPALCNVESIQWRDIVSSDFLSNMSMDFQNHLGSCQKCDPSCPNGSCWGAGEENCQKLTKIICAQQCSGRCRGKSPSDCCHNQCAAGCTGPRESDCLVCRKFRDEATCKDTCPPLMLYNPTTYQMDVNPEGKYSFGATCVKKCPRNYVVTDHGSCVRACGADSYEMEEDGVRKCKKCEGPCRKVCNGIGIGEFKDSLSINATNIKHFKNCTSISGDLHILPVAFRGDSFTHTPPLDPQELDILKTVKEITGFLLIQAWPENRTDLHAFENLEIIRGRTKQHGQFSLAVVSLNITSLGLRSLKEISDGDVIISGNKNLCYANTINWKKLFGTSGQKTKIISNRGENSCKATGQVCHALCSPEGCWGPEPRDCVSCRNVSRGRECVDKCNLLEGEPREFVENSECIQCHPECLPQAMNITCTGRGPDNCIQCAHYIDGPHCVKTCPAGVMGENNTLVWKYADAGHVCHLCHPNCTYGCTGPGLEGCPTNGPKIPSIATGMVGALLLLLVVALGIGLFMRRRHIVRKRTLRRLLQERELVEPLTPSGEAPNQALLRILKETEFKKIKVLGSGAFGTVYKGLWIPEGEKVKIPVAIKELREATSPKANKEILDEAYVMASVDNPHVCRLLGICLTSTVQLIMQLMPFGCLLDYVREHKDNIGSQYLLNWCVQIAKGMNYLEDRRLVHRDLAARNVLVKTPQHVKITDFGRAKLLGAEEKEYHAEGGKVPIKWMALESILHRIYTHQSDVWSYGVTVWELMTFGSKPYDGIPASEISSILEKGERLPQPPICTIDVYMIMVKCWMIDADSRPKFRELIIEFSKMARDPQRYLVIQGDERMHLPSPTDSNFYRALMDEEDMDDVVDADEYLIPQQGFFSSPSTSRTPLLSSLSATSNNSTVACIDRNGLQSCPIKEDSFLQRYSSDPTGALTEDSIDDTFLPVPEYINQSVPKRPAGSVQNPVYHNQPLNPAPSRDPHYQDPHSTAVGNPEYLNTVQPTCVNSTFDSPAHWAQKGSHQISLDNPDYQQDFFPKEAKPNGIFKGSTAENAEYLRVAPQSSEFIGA
Epidermal growth factor receptor (Homo sapiens), P00533 [L858R,T790M], sequence (P00533 whole entry T790M/L858R, looked up): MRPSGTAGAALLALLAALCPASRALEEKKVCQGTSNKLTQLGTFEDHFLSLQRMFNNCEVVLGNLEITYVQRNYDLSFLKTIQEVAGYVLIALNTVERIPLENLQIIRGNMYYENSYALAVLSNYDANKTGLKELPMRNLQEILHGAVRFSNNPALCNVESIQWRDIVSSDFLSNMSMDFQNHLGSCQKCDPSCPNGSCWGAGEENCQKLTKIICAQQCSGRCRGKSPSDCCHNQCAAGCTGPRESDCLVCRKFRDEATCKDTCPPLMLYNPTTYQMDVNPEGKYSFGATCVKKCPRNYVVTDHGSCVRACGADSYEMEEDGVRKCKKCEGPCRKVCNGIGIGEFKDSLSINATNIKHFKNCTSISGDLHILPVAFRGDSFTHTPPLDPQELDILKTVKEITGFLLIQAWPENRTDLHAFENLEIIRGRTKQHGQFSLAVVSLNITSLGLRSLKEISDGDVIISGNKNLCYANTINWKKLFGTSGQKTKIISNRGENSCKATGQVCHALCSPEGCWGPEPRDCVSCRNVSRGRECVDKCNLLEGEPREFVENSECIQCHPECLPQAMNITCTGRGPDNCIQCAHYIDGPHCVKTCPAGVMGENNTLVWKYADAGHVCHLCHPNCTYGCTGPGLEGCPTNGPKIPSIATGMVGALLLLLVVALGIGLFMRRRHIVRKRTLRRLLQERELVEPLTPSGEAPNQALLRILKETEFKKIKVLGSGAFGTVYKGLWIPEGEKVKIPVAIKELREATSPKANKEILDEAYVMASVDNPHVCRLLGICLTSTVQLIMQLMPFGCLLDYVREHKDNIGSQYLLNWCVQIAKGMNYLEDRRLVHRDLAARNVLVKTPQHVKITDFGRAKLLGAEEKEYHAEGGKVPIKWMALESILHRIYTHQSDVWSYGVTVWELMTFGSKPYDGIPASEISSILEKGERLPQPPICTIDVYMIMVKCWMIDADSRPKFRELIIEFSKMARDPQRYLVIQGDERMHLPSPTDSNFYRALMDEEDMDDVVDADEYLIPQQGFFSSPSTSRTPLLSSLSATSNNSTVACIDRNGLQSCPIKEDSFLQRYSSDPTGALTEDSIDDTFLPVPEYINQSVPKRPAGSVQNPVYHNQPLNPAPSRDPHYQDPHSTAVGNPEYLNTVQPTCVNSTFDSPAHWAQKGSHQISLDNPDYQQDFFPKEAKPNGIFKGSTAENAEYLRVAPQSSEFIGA

Row | SMILES | IC50 [1] [nM] | IC50 [2] [nM] | Kd [3] [nM] | Kd [4] [nM] | also measured
1 | C=CC(=O)Nc1cccc(-n2c(=O)cc(C3CC3)c3cnc(Nc4ccc(N5CCN(C)CC5)cc4OC)nc32)c1 | 120 | 10 | 57 | 2.2 | –
2 | C=CC(=O)Nc1cccc(-n2c(=O)cc(N(C)C)c3cnc(Nc4ccc(N5CCN(C)CC5)cc4OC)nc32)c1 | 210 | 95 | – | – | –
3 | C=CC(=O)Nc1cccc(-n2c(=O)cc(-c3ccc(-c4ccccc4)cc3)c3cnc(Nc4ccc(N5CCN(C)CC5)cc4OC)nc32)c1 | > 1000 | > 1000 | – | – | –
4 | C=CC(=O)Nc1cccc(-n2c(=O)cc(C)c3cnc(Nc4ccc(N5CCN(C)CC5)cc4OCCC)nc32)c1 | 270 | 19 | – | – | –
5 | C=CC(=O)Nc1cccc(-n2c(=O)c(-c3ccccc3)c(C)c3cnc(Nc4ccc(N5CCN(C)CC5)cc4OC)nc32)c1 | 20 | 1.6 | 4.3 | 0.91 | –
6 | C=CC(=O)Nc1cccc(-n2c(=O)cc(-c3ccccc3)c3cnc(Nc4ccc(N5CCN(C)CC5)cc4OC)nc32)c1 | 97 | 21 | – | – | –
7 | C=CC(=O)Nc1cccc(-n2c(=O)cc(C(C)C)c3cnc(Nc4ccc(N5CCN(C)CC5)cc4OC)nc32)c1 | 98 | 94 | – | – | –
8 | C=CC(=O)Nc1cccc(-n2c(=O)cc(CC)c3cnc(Nc4ccc(N5CCN(C)CC5)cc4OC)nc32)c1 | 114 | 6.7 | 140 | 1.8 | –
9 | C=CC(=O)Nc1cccc(Oc2nc(Nc3ccc(N4CCN(C)CC4)cc3OC)ncc2Cl)c1 | – | – | – | – | inhibition [23]: Active; inhibition [24]: Active; inhibition [25]: Active

The next lines start with results.

Row | IC50 [1] [nM] | IC50 [2] [nM] | Kd [3] [nM] | Kd [4] [nM] | SMILES | also measured
10 | > 1000 | 39 | – | – | C=CC(=O)Nc1cccc(-n2c(=O)cc(C(F)(F)F)c3cnc(Nc4ccc(N5CCN(C)CC5)cc4OC)nc32)c1 | –
11 | 1 | 0.5 | 1.2 | 0.5 | C=CC(=O)Nc1cccc(-n2c(=O)c(Cc3ccccc3)cc3cnc(Nc4ccc(N5CCN(C)CC5)cc4OC)nc32)c1 | Ratio IC50 [5]: 2
12 | 16 | 1.3 | 6.2 | 0.88 | C=CC(=O)Nc1cccc(-n2c(=O)c(C)cc3cnc(Nc4ccc(N5CCN(C)CC5)cc4OC)nc32)c1 | –
13 | > 1000 | 280 | – | – | C=CC(=O)Nc1cccc(-n2c(=O)cc(C)c3c(C)nc(Nc4ccc(N5CCN(C)CC5)cc4OC)nc32)c1 | –
14 | 240 | 0.8 | 48 | 0.26 | C=CC(=O)Nc1cccc(-n2c(=O)cc(C)c3cnc(Nc4ccc(N5CCN(C)CC5)cc4OC)nc32)c1 | inhibition (INH) [6]: Active; Ratio IC50 [5]: 300; inhibition (INH) [7]: Active; inhibition [8]: < 65%; inhibition [9]: 99.5%; IC50 [10]: 870 nM; Ratio IC50 [11]: >1000; Ratio IC50 [12]: >1000; IC50 [13]: 2.8 nM; Activity [14]: Non-toxic; inhibition (INH) [15]: Active; Ratio IC50 [16]: >1000; inhibition [17]: Active; Selectivity ratio [18]: 185; Activity [19]: Non-toxic; Activity [20]: Non-toxic; Ratio IC50 [21]: >1000; Ratio IC50 [22]: 311
15 | > 1000 | 78 | – | – | C=CC(=O)Nc1cccc(-n2c(=O)cc(C)c3cnc(Nc4ccc(N5CCN(C)CC5)cc4OC(C)C)nc32)c1 | –
16 | 15 | 0.5 | 14 | 0.43 | C=CC(=O)Nc1cccc(-n2c(=O)ccc3cnc(Nc4ccc(N5CCN(C)CC5)cc4OC)nc32)c1 | Ratio IC50 [5]: 30; Selectivity ratio [18]: 32.5
17 | 170 | 11 | 350 | 1.2 | C=CC(=O)Nc1cccc(-n2c(=O)cc(C)c3cnc(Nc4ccc(N5CCN(C)CC5)cc4OCC)nc32)c1 | –
18 | 970 | 17.8 | – | – | C=CC(=O)Nc1cccc(-n2c(=O)cc(CCC)c3cnc(Nc4ccc(N5CCN(C)CC5)cc4OC)nc32)c1 | –
19 | 7.8 | 0.2 | 2.5 | 0.5 | C=CC(=O)Nc1cccc(-n2c(=O)c(-c3ccccc3)cc3cnc(Nc4ccc(N5CCN(C)CC5)cc4OC)nc32)c1 | –
